Reference: patent US5760001A, “Cytokine restraining agents and methods of use in pathologies and conditions associated with altered cytokine levels” (Trega Biosciences, Inc., priority 1995, dated 1998)

Tests used:
Sprague-Dawley rats = assay: Renal ischemia-reperfusion injury; type: in vivo; parameters: RVR (renal vascular resistance): unit not given here; settings: I/R + EX-2 (50 or 500 μg/kg iv before 1 hr clamping), after 60 min reperfusion
Protocol: Sprague-Dawley rats (250-300 g) were anesthetized with Inactin® (120 mg/kg). After deep anesthesia was assured, the rats were cannulated in the trachea with polyethylene (PE) tubing (PE 240), jugular vein, femoral artery, bladder (PE 50 for previous 3 cannulations), and left ureter (stretched PE 50). Once cannulation was completed, a 2 cm flank incision above the left kidney was performed and the renal pelvis and vascular bundle were exposed. The tissue surrounding the left renal artery was gently dissected away from the artery. The exposed renal artery was clamped for 1 hr using a small vascular cross-over clamp.
Just prior to clamping, EX-2 (50 or 500 μg/kg), ketorolac (KETO, 1 mg/kg), or vehicle was administered intravenously (iv) After 1 hr of clamping (ischemia), the clamp was gently removed with care taken to avoid damaging either the renal artery or nerves. An infusion of ^3 H-Inulin (NEN/Dupont; Wilmington, Del.), (0.6 μCi/ml in phosphate buffered saline (PBS)) (2 ml/hr) was initiated at a constant rate of […]. After 60 min of reperfusion, glomerular filtration rate (GFR), renal plasma flow (RPF) and renal vascular resistance (RVR) were assessed in two 30 min collection periods. The kidney was then removed for analysis. Sham operated and clamped rats served as controls for the above group. Contralateral renal function was utilized to determine the stability of the rat's renal function during the measured period.

[1] = test system: inducible nitric oxide synthase (INOS); assay: Inducible nitric oxide synthase induction in rat aorta smooth muscle cells (cGMP RIA); type: cell-based; settings: RASMC induced with LPS, IL-1β or TNF-α; EX-2 0.1 or 1 μM
Protocol: Rat aorta smooth muscle cells (RASMC) were isolated from male rats (325-350 g) using the previously published procedures of Gelsterfer et al., Circ. Res. 62:749-756 (1988), which is incorporated herein by reference. Cells were positively identified as smooth muscle cells by indirect immunofluorescent staining for anti-α-actin, using a mouse anti-α-actin antibody and anti-mouse IgG FITC conjugate. Cells were grown in T-75 tissue culture flasks (Corning Delbelco's Glass, Inc.; Corning, N.Y.) in 50% F12 and 50% Delbelco's Modified Eagle Medium (DMEM) supplemented with 10% bovine serum, 0.2 g/l L-glutamine, penicillin (100 U/ml) and streptomycin (0.1 mg/ml).
Cells between passages 1-5 were pretreated with one of the following: vehicle, LPS (1 μg/ml), IL-1β (10 U/ml), or TNF-α (100 U/ml) for 6 hr. […] Accumulation of cGMP was determined following exposure to 0.3 mM 3-isobutyl-1-methyl xanthine (IBMX) in the presence or absence of 1 mM L-arginine. […] The HCl extract was analyzed for cGMP by RIA and the NaOH-solubilized cell remnants were used for protein determination.
Male Sprague-Dawley rats were anesthetized with 55 mg/kg pentobarbital IP. […] RASMC were incubated with plasma from control or EX-2-treated animals and the ability of plasma components to inhibit the induction of INOS by LPS or IL-1β was determined as above. […]

Ac-Nle-Gln-His-(D)Phe-Arg-(D)Trp-Gly-NH2 [EX-2]
GFR (glomerular filtration rate) (Sprague-Dawley rats; I/R + PBS 0.2 ± 0.1, Sham 1.0 ± 0.1): 0.5 ± 0.1 | RPF (renal plasma flow) (Sprague-Dawley rats; I/R + PBS 0.8 ± 0.2, Sham 4.2 ± 0.4): 2.3 ± 0.3 | RVR (renal vascular resistance) (Sprague-Dawley rats; I/R + PBS 6.6 ± 2.1, Sham 1.0 ± 0.1): 1.8 ± 0.2 | INOS: cGMP (pmol/100 mg/15 min), % Reduction of induced increase [1]: 60%
